The values that follow come from patent US20230331792A1, “NEW MULTI-FUNCTIONAL OLIGOPEPTIDES” (ENLITISA (SHANGHAI) PHARMACEUTICAL CO., LTD., priority 2019, published 2023).

Square brackets hold non-standard residues; d marks the D form. Ends that are not written are not given here. Dopa = N[C@@H](Cc1ccc(O)c(O)c1)C(=O)O; Hyp = O=C(O)[C@@H]1C[C@@H](O)CN1

Format in all cases: in vivo
The test system of assay [1] is BALB/c mice. As to the kind of experiment: Mouse ear swelling model (xylene). To be noted: for Swelling rate: about 0.1 g on right ear 1 h before xylene; for effect on edema caused by inflammation: hydrogels 0.5 and 1 mg/g. The protocol: 30 Health male BALB/c mice with 6-8 weeks old and average body weight of 18-25 g were supplied by Changzhou Cvens Experimental Animal Co., Ltd. and housed and cared for about 1 week prior to the experiment. […] The mice were randomly divided into 6 groups as described in Table 8, with 5 mice in each group. Compound A and Compound B were dissolved at concentrations indicated in Table 8 below (L=low dose, M=medium dose, H=high dose).
All excipients were obtained from Sinopharm Chemical Reagent Co. Ltd. The gels were made with water for injection.
Dexamethasone acetate cream (Dex cream; 5 mg/10 g (which means that there was 5 mg Dex contained in 10 g of the cream), Fuyuan Pharmaceutical Co., Ltd., Anhui, China) was used as positive control.
The left ear of each mouse was used as an autologous control. The right ear of each mouse was treated with the above compounds in the stated concentrations (Table 8).
About 0.1 g of the various gels, and Dex cream were applied to the right ear of mice in each group, both inside and outside. The blank gel base was applied on the ears in the model groups. After 1 hour, 20 μL of xylene (Shanghai Aladdin Bio-Chem Technology Co., Ltd.) was applied to the same ear of each mouse.
The mice were sacrificed by cervical dislocation 40 minutes after xylene application. The left and right ears were cut off. An EMS skin biopsy punch with a diameter of 8 mm was used to take a piece of the ear from the same site on both ears. The weights were recorded, and the swelling rate was calculated as a percentage according to the following formula:
(right ear weight−left ear weight)/left ear weight×100

Assay [2] relates to C57BL/6 mice. As to the kind of experiment: Air pouch model (carrageenan-induced acute inflammation). On the set-up: key to Inflammation score / Edema score: 1 = mild, 2 = moderate, 3 = severe. The protocol: Healthy adult male C57BL/6 mice weighing between 20 and 30 g were supplied by Changzhou Cvens Experimental Animal Co. Ltd. Prior to any experiments being conducted, the mice were housed under standardized conditions (at a constant temperature or 22±2° C., with alternating 12-hour periods of light and darkness), and were fed on a standard mouse diet with water, for about a week. The mice were randomly divided into 9 groups as described in Table 4, with 7 mice in each group.
General anaesthesia was induced using intraperitoneal delivery of 3% chloral hydrate (Sinopharm Chemical Reagent Co., Ltd., Shanghai, China); 1 mL/10 g of body weight). The hair of the entire dorsum was shaved and depilated one day before sterile air injection.
Air pouches were produced by subcutaneous injection of sterile air (5 mL) into the intrascapular area of the mice. After three days, another injection of air (3 mL) was performed to maintain the pouches. In order to induce acute inflammation, three days after the second injection, animals received an injection of sterile carrageenan solution (CP Kelco, Taixing, Jiangsu Province, China; 1%, 0.5 mL; produced by adding 0.1 g of carrageenan powder into a beaker containing 10 mL of 0.9% saline solution and stirring). Mice were pre-treated with test samples or vehicle 1 hour before and 23 hours after the carrageenan injection into the subcutaneous air pouch. Animals were sacrificed 24 hours after the carrageenan injection.
Skin biopsies were taken from the air pouches. A part of the biopsy was fixed in formalin (produced by adding ultra-pure water to 50 mL of a 40% formaldehyde solution (Nanchang Rain Dew Experimental Equipment Co., Ltd., Nanchang, […] Provence, China) up to a total volume of 500 mL) and analyzed by histological embedding in paraffin wax, sectioning and staining.
The histological specimens were analyzed, and an inflammation score and an edema score were estimated. The inflammation scores were estimated by observing heamatoxylin and eosin (HE) stained slices under an optical microscope. Scores (between 1 to 3 points) were given according to the perceived inflammation level (e.g. in cases where only a small amount of inflammatory cells scattered in the area: 1 point was given (mild); in cases where many inflammatory cells were observed: 2 points were given (moderate); and, in cases with diffuse infiltration: 3 points were given (severe)). A similar scoring system was employed for edema levels (3 points for most severe and 1 point for mild) after overall observation.
After conducting some preliminary experiments to validate the model, an experiment was conducted in which mice were treated by administering test samples or vehicle in accordance with Table 4 below. Compound A and Compound B were dissolved in saline at concentrations indicated in Table 4 below (L=low dose, M=medium dose, H=high dose).
Compound A and Compound B were synthesized as described in Examples 8 and 7 above, respectively. The peptide powders were stored at −20° C. prior to use. Dexamethasone (Dex) was obtained from Shanghai Aladdin Bio-Chem Technology Co., Ltd., Shanghai, China.

Assay [3] concerns C57BL/6 mice. As to the kind of experiment: Acute wound model (full-thickness skin wound). To be noted: topical 50 μL/wound once daily Day 0 to Day 7; 1.65, 16.45, 164.5 μg/wound/day. The protocol: 6-8 weeks old male C57BL/6 mice were supplied by Changzhou Cvens Experimental Animal Co. Ltd. (Changzhou, Jiangsu Province, China). Prior to any experiments being conducted, mice were housed under standardized conditions at a constant temperature of 22±2° C., with alternating 12-hour periods of light and darkness, and were fed on a standard mouse diet with water, for about a week.
General anesthesia was induced using intraperitoneal administration of 3% chloral hydrate (1 mL/10 g of body weight). The hair on the back was shaved by a baby hair shaver and depilated with cream. The skin area was wiped and sterilized with 75% alcohol twice.
A 12 mm EMS skin biopsy punch (Electron Microscopy Sciences, P.O. Box 550, 1560 Industry Road, Hatfield, PA 19440) was used to make two round wounds on the midline of the back. The two wounds were tangential and the skin between the circles was cut along the upper and lower tangents. Scissors were used to trim the wound. The full thickness of skin was removed to reach the fascia. The wound was oval shape and was left open without suture. […]
Photographs were taken of each wound every other day from Day 0. Photos were scanned into a computer, and wound areas calculated using ImageJ image analysis software (National Institute of Health).
The unhealed wound area was expressed as a percentage of the original wound area: […]

Regarding “{[(Ala-Lys-Pro-Ser-Tyr-Hyp-Hyp-Thr-DOPA-Lys)2-Lys]2-Lys}2-Lys (AKPSY[Hyp][Hyp]T[Dopa]KKKK; also: branched lysine dendrimer {[(peptide)2-Lys]2-Lys}2-Lys) [Compound B]”, the Swelling rate in assay [1] (hydrogel 0.5 mg/g (L)) is given as 43%. For the same substance, the Swelling rate in assay [1] (hydrogel 1 mg/g (H)) worked out at 38%. Further, the “effect on edema caused by inflammation” value in assay [1] was “significantly eliminate the edema caused by inflammation”. Further, in assay [2] (low dose 50 μg/mouse), the Edema score worked out at 2.00, the Inflammation score was found to be 1.83 and the “Sum of the scores” value is given as 3.83. Also, in assay [2] (medium dose 250 μg/mouse), the Edema score is reported as 2.14, the Inflammation score turned out to be 1.80 and the “Sum of the scores” value came out at 3.94. In addition, the “unhealed wound rate / wound healing (FIG. 1)” value in assay [3] was “significantly improve wound healing”.
“{[(Dopa-Ala-Lys-Pro-Ser-Tyr-Hyp-Hyp-Thr-Tyr-Lys)2-Lys]2-Lys}2-Lys ([Dopa]AKPSY[Hyp][Hyp]TYKKKK; also: branched lysine dendrimer {[(peptide)2-Lys]2-Lys}2-Lys) [Compound A]” displayed a Swelling rate in assay [1] (hydrogel 0.5 mg/g (L)) of 63%. The substance also gave a Swelling rate in assay [1] (hydrogel 1 mg/g (H)) of 43%. Moreover, in assay [1], the “effect on edema caused by inflammation” value is given as “significantly eliminate the edema caused by inflammation”. Besides, in assay [2] (low dose 50 μg/mouse), the Edema score was 1.71, the Inflammation score turned out to be 1.86 and the “Sum of the scores” value is given as 3.57. For the same substance, in assay [2] (medium dose 250 μg/mouse), the Edema score is 1.57, the Inflammation score is on record as 1.57 and the “Sum of the scores” value is 3.14. For the same substance, the “unhealed wound rate / wound healing (FIG. 1)” value in assay [3] was “significantly improve wound healing”.
